Results from article PMC9721426, “Novel piperine-carboximidamide hybrids: design, synthesis, and antiproliferative activity via a multi-targeted inhibitory pathway” (Journal of Enzyme Inhibition and Medicinal Chemistry, 2022).

Assays:
BRAF^V600E = biological target: T1, BRAF^V600E (Mus musculus, UniProt P28028, V585E); test: BRAF V600E kinase assay; assay type: biochemical; conditions: read-out: BRAF^V600E inhibition IC50 ± SEM
T1 construct: Mouse full-length GST-tagged BRAFV600E; GST; purchased Invitrogen PV3849
Protocol: An in vitro study was conducted to evaluate the anti-BRAF^V600E of VIc, VIf, VIg, VIi, and VIk[31]. […] An in vitro study[31] was conducted to evaluate the anti-BRAF^V600E of VIc, VIf, VIg, VIi, and Vik. See Appendix A.
4.2.1.4. BRAF kinase assay
V600E mutant BRAF kinase assay was performed to investigate the activity of the most […]
Mouse full-length GST-tagged BRAFV600E (7.5 ng, Invitrogen, PV3849) was pre-incubated with drug (1 µL) and assay dilution buffer (4 µL) for 60 min at 25 °C. In assay dilution buffer, a solution (5 µL) containing MgCl 2 (30 mM), ATP (200 µM), recombinant human full length (200 ng) […] N-terminal His-tagged MEK1 (Invitrogen) was added to start the assay, subsequent to incubation for 25 min at 25 °C. The assay was stopped using 5X protein denaturing buffer (LDS) solution (5 µL).
To further denature the protein, heat (70° C) was applied for 5 min.
NuPage gel plates (Invitrogen) were used to carry out electrophoresis (at 200 V). 10 µL of each reaction was loaded into the precast plates and electrophoresis was allowed to proceed. After completion of electrophoresis, the front part of the precast gel plate (holding hot ATP) was cut and afterw ards cast-off. The dried gel was developed using a […]
that containing no inhibitor served as positive control. […]

[1] = system: MCF-7 (breast cancer cell line); test: Antiproliferative MTT assay, MCF-7; assay type: cell-based; conditions: Homo sapiens, MCF7; MCF-7, MTT; read-out: Antiproliferative activity IC50 ± SEM, MCF-7
Protocol: (§1) The MTT assay was performed using various cell lines in accordance with previously reported procedures[28]^,[29] to investigate the antiproliferative potential of VIa-k. Refer to Appendix A. […]
(§2) added (in 200 μL medium to yield a final concentration of 0.1% v/v) to the wells of plates. A single compound was designated with four wells followed by incubation of […]
(§3) After incubation, medium was removed completely from the plates followed by addition of MTT (0.4 mg/mL in medium) to each well and subsequent incubation of plates for 3h. MTT (along with the medium) was removed and DMSO (150μL) was added to each well of the culture plates, followed by vortexing and subsequent measurement of absorbance (at 540 nm) using microplate reader. The data are shown as percentage inhibition of proliferation in comparison with controls containing 4.2.1.2. Assay for antiproliferative effect […]
(§4) The percentage cytotoxicity of compounds was calculated using the following […]
(§5) Where ATC= Absorbance of treated cells and AC= Absorbance of control. […]
(§6) used as positive control in the assay. […]

[2] = system: four human cancer cell lines (Panc-1, MCF-7, HT-29, A-549); test: Antiproliferative MTT assay, average (GI50) over the four cancer cell lines; assay type: cell-based; conditions: Homo sapiens; average of IC50 versus A-549, MCF-7, Panc-1, HT-29
Protocol: The average (GI50) versus the four cancer cell lines was chosen for ease of manipulation.
as §1, §2, §3, §4, §5, §6

EGFR = biological target: T2, EGFR (Homo sapiens, UniProt P00533); test: EGFR-TK inhibitory assay; assay type: biochemical; conditions: EGFR-TK assay; read-out: EGFR inhibition IC50 ± SEM
T2 construct: cytoplasmic domain (EGFR -CD, amino acids 645–1186); His6 (N); made in house; host or cells: Sf-9 insect cells (baculovirus, pBlueBacHis2B / pFASTBacHTc)
Protocol: 4.2.1.3. EGFR inhibitory assay
EGFR-TK assay was performed to evaluate the inhibitory potency of the tested compounds against EGFR30. Baculoviral expression vectors including pBlueBacHis2B […]
sequence comprised a sequence that encoded (His) 6. Sf-9 cells were infected for 72h for protein expression. The pellets of Sf-9 cells were solubilized in a buffer containing sodium vanadate (100 µM), aprotinin (10 µg/mL), triton (1%), HEPES buffer (50mM), ammonium molybdate (10 µM), benzamidine HCl (16 µg/mL), NaCl (10 mM), leupeptin (10 µg/mL) and pepstatin (10 µg/mL) at 0°C for 20 min at pH 7.4, followed by centrifugation for 20 min. To eliminate the non-specifically bound material, a Ni-NTA super flow packed column was used to pass through and wash the crude extract supernatant first with 10 mM and then with 100 mM imidazole. […]
NaCl (50 mM), HEPES (20 mM), glycerol (10%) and 1 µg/mL each of aprotinin, leupeptin and pepstatin for 120 min. The purification was performed either at 4 °C or on ice. To record autophosphorylation level, EGFR kinase assay was carried out on the basis of DELFIA/Time-Resolved Fluorometry. The compounds were first dissolved in DMSO […]
pH 7.4. Each compound (10 µL) was incubated with recombinant enzyme (10 µL, 5 ng for EGFR, 1:80 dilution in 100 mM HEPES) for 10 min at 25 °C, subsequent to the addition of 5X buffer (10 µL, containing 2 mM MnCl2, 100 µM Na3VO4, 20 mM HEPES and 1 mM DTT) and ATP-MgCl2 (20 µL, containing 0.1 mM ATP and 50 mM MgCl 2) and incubation for 1h. The negative and positive controls were included in each plate by the incuba tion of enzyme either with or without ATP -MgCl2. The liquid was removed after incubation and the plates were washed thrice using wash buffer. Europium -tagged antiphosphotyrosine antibody (75 µL, 400 ng) was added to each well followed by incubation of 1h a nd then washing of the plates using buffer. The enhancement solution was added to each well and the signal was recorded at excitation and emission […]
The autophosphorylation percentage inhibition by compounds was calculated using the following equation: […]
Using the curves of percentage inhibition of eight concentrations of each compound, IC 50

Human CDK2/A2 = Human CDK2/A2 (Homo sapiens, UniProt P24941); test: CDK2 inhibitory assay
Protocol: Protein Kinase Assays. Human CDK2/A2 was purchased from New England Biolabs IC50 values for CDK2/A were determined according to the supplier’s instructions

[3] = system: HT-29 (colon cancer cell line); test: Antiproliferative MTT assay, HT-29; assay type: cell-based; conditions: Homo sapiens; HT-29, MTT; read-out: Antiproliferative activity IC50 ± SEM, HT-29
Protocol: as §1, §2, §3, §4, §5, §6

[4] = system: A-549 (epithelial cancer cell line); test: Antiproliferative MTT assay, A-549; assay type: cell-based; conditions: Homo sapiens, A549; A-549, MTT; read-out: Antiproliferative activity IC50 ± SEM, A-549
Protocol: as §1, §2, §3, §4, §5, §6

T2 sequence (P00533 669-1210): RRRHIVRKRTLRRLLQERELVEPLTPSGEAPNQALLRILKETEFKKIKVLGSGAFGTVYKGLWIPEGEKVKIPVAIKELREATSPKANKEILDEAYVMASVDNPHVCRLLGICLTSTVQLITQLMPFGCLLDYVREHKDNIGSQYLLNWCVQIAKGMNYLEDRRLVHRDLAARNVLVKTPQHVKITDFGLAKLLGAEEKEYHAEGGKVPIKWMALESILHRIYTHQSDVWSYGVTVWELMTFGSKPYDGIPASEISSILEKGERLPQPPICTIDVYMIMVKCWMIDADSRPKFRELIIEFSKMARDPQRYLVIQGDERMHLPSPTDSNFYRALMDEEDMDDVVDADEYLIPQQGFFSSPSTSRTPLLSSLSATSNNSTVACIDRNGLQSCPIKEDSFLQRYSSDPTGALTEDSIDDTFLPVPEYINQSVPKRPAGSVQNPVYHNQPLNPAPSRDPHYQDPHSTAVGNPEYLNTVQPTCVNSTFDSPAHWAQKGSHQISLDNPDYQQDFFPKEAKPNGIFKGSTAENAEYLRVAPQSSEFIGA
T1 sequence (P28028 whole entry V585E): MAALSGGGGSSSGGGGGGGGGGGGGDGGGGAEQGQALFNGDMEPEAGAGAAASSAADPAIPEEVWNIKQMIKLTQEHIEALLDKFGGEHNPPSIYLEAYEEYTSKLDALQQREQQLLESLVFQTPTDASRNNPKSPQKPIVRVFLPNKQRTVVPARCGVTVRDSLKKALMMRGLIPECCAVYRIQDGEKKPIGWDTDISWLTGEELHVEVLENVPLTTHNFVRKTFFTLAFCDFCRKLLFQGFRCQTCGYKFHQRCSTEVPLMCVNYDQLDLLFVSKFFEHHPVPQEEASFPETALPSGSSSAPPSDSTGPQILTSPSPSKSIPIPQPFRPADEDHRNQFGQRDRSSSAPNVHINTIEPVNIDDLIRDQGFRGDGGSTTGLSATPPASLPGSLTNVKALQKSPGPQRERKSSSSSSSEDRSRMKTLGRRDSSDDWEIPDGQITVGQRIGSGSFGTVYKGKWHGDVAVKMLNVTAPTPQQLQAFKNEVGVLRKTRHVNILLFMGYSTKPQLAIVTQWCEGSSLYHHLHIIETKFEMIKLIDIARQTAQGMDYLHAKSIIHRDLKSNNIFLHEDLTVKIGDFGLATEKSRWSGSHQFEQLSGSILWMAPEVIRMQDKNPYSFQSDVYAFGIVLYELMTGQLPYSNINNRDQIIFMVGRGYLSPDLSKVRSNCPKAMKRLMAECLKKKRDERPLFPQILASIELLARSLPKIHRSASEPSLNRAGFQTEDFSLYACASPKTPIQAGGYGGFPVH

IC50 (BRAF^V600E)	IC50 [1]	GI50 [2]	IC50 (EGFR)	IC50 (Human CDK2/A2)	IC50 [3]	IC50 [4]	CDK2 potency relative to the reference dinaciclib (more potent) (Human CDK2/A2; ratio of IC50 values)	SMILES
57 ± 6 nM	47 ± 5 nM	50 nM	112 ± 8 nM	23 ± 2 nM	55 ± 5 nM	45 ± 5 nM		NC(=NOC(=O)/C=C/C=C/c1ccc2c(c1)OCO2)c1ccc(Br)cc1 [VIc, N'-{[(2E,4E)-5-(2H-1,3-Benzodioxol-5-yl)penta-2,4-dienoyl]oxy}-4-bromobenzene-1-carboximidamide]
49 ± 5 nM	43 ± 4 nM	44 nM	105 ± 7 nM	21 ± 2 nM	47 ± 4 nM	41 ± 4 nM		NC(=NOC(=O)/C=C/C=C/c1ccc2c(c1)OCO2)c1ccccc1Cl [VIf, N'-{[(2E,4E)-5-(2H-1,3-benzodioxol-5-yl)penta-2,4-dienoyl]oxy}-2-chlorobenzene-1-carboximidamide]
40 ± 4 nM	35 ± 3 nM	35 nM	127 ± 10 nM	12 ± 2 nM	38 ± 3 nM	32 ± 3 nM	1.5 fold	N/C(=N/OC(=O)/C=C/C=C/c1ccc2c(c1)OCO2)c1ccc2c(c1)OCO2 [VIk]
